From the supplement of paper PMC10307832

What was measured:
Experiment in all cases: relative viability (nuclei count vs DMSO), 5 days (fraction); higher = more cells survive
NCI-H322M = test system: NCI-H322M
Method in brief: (§1)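 Relative viability divides the nuclei count in treated wells by that in vehicle wells. Lung cancer cell lines were seeded in 1536-well plates, dosed by pin tool the next day, and fixed and stained after 5 days in one step with final 0.05% Triton X-100, 1% formaldehyde and 1 ug/ml Hoechst. Dosing was a single drug or a fixed anchor-drug dose plus five library-drug doses (not always all listed) in √10 steps, and values are medians of duplicate plates imaged at 4×.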

NCI-H522 = test system: NCI-H522
Method in brief: as §1

NCI-H1755 = test system: NCI-H1755
Method in brief: as §1

RERF-LC-KJ = test system: RERF-LC-KJ
Method in brief: as §1

SW 900 = test system: SW 900
Method in brief: as §1

NCI-H520 = test system: NCI-H520
Method in brief: as §1

NCI-H3122 = test system: NCI-H3122
Method in brief: as §1

LXF-289 = test system: LXF-289
Method in brief: as §1

NCI-H441 = test system: NCI-H441
Method in brief: as §1

LCLC-103H = test system: LCLC-103H
Method in brief: as §1

NCI-H1355 = test system: NCI-H1355
Method in brief: as §1

Nc1ccn([C@@H]2O[C@H](CO)[C@@H](O)[C@@H]2O)c(=O)n1 [Cytarabine] + Nc1ncn([C@H]2C[C@H](O)[C@@H](CO)O2)c(=O)n1 [Decitabine] (partner 2 µM)
relative viability (NCI-H322M; first compound 0.005 µM): 0.687 | relative viability (NCI-H322M; first compound 0.01581 µM): 0.608 | relative viability (NCI-H322M; first compound 0.05 µM): 0.472 | relative viability (NCI-H322M; first compound 0.1581 µM): 0.472 | relative viability (NCI-H322M; first compound 0.5 µM): 0.448 | relative viability (NCI-H522; first compound 0.005 µM): 0.653 | relative viability (NCI-H522; first compound 0.01581 µM): 0.608 | relative viability (NCI-H522; first compound 0.05 µM): 0.628 | relative viability (NCI-H522; first compound 0.1581 µM): 0.484 | relative viability (NCI-H522; first compound 0.5 µM): 0.335 | relative viability (NCI-H1755; first compound 0.005 µM): 0.705 | relative viability (NCI-H1755; first compound 0.01581 µM): 0.619 | relative viability (NCI-H1755; first compound 0.05 µM): 0.659 | relative viability (NCI-H1755; first compound 0.1581 µM): 0.472 | relative viability (NCI-H1755; first compound 0.5 µM): 0.424 | relative viability (RERF-LC-KJ; first compound 0.005 µM): 0.677 | relative viability (RERF-LC-KJ; first compound 0.01581 µM): 0.568 | relative viability (RERF-LC-KJ; first compound 0.05 µM): 0.475 | relative viability (RERF-LC-KJ; first compound 0.1581 µM): 0.342 | relative viability (RERF-LC-KJ; first compound 0.5 µM): 0.29 | relative viability (SW 900; first compound 0.005 µM): 0.384 | relative viability (SW 900; first compound 0.01581 µM): 0.344 | relative viability (SW 900; first compound 0.05 µM): 0.325 | relative viability (SW 900; first compound 0.1581 µM): 0.199 | relative viability (SW 900; first compound 0.5 µM): 0.287 | relative viability (NCI-H520; first compound 0.005 µM): 0.48 | relative viability (NCI-H520; first compound 0.01581 µM): 0.564 | relative viability (NCI-H520; first compound 0.05 µM): 0.53 | relative viability (NCI-H520; first compound 0.1581 µM): 0.343 | relative viability (NCI-H520; first compound 0.5 µM): 0.349 | relative viability (NCI-H3122; first compound 0.005 µM): 0.459 | relative viability (NCI-H3122; first compound 0.01581 µM): 0.383 | relative viability (NCI-H3122; first compound 0.05 µM): 0.374 | relative viability (NCI-H3122; first compound 0.1581 µM): 0.228 | relative viability (NCI-H3122; first compound 0.5 µM): 0.26 | relative viability (LXF-289; first compound 0.005 µM): 0.387 | relative viability (LXF-289; first compound 0.01581 µM): 0.312 | relative viability (LXF-289; first compound 0.05 µM): 0.314 | relative viability (LXF-289; first compound 0.1581 µM): 0.227 | relative viability (LXF-289; first compound 0.5 µM): 0.197 | relative viability (NCI-H441; first compound 0.005 µM): 0.289 | relative viability (NCI-H441; first compound 0.01581 µM): 0.186 | relative viability (NCI-H441; first compound 0.05 µM): 0.268 | relative viability (NCI-H441; first compound 0.1581 µM): 0.182 | relative viability (NCI-H441; first compound 0.5 µM): 0.153 | relative viability (LCLC-103H; first compound 0.005 µM): 0.71 | relative viability (LCLC-103H; first compound 0.01581 µM): 0.734 | relative viability (LCLC-103H; first compound 0.05 µM): 0.73 | relative viability (LCLC-103H; first compound 0.1581 µM): 0.751 | relative viability (LCLC-103H; first compound 0.5 µM): 0.724 | relative viability (NCI-H1355; first compound 0.005 µM): 0.349 | relative viability (NCI-H1355; first compound 0.01581 µM): 0.332
